The experiment addresses T1, human mAChR M4 (Homo sapiens, UniProt P08173).
T1 construct: expressed in transfected cells; host or cells: CHO-K1 (American Type Culture Collection), stably expressing hM4 and Gqi5
T1 sequence (P08173 1-479): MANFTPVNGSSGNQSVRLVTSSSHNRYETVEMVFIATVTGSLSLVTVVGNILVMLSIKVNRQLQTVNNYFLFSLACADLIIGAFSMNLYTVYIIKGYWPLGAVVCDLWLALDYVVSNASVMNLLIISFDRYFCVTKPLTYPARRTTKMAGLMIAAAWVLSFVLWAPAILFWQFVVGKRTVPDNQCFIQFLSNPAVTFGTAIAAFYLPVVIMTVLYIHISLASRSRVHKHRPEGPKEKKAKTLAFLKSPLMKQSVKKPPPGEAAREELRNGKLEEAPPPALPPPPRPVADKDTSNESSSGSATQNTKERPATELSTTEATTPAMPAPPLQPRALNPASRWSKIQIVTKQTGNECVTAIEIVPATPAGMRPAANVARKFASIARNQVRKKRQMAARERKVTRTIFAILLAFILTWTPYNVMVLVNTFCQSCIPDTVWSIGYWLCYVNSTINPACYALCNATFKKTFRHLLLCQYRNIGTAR
Kind of experiment: mAChR M4 cell-based functional assay: calcium mobilization (Fluo-4, FDSS), potentiation of EC20 acetylcholine response in hM4-Gqi5 CHO-K1 cells. To be noted: human M4; for Emax at 30 µM: CHO-K1, % ACh maximum at 30 μM; for EC50: potentiation of EC20 acetylcholine response, calcium mobilization. The procedure, abridged: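 Readout is the fluorescence-ratio rise at 1 Hz on FDSS, with PAM activity taken as concentration-dependent enhancement of the EC20 acetylcholine response, fitted four-parameter for EC50/Emax. hM4-Gqi5 CHO-K1 cells carried Fluo-4 AM dye; test compounds (11 points, 1:3) preceded EC20 acetylcholine additions at 144 s and 230 s.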
For orientation: A change in cytosolic calcium serves as a functional read-out for many receptors and channels.

Each structure is given as a SMILES string.

As a reminder, the Emax is the greatest response seen or fitted, relative to the assay's reference. One may read the EC50 as the concentration that produces a half-maximal response. For the molecule `CCc1ccncc1-c1cnc2c(c1)CN(c1nn3c(=O)ccnc3c(C)c1C)CC2` [Compound 1-96, 7-(3-(4-ethylpyridin-3-yl)-7,8-dihydro-1,6-naphthyridin-6(5H)-yl)-8,9-dimethyl-4H-pyrimido[1,2-b]pyridazin-4-one], the Emax at 30 µM is 63% and the EC50 was found to be 37 nM.

Turning to `Cc1c(N2CCc3ncc(-c4ccc(N5CCCCC5)nc4)cc3C2)nn2c(=O)ccnc2c1C` [Compound 1-97, 8,9-dimethyl-7-(3-(6-(piperidin-1-yl)pyridin-3-yl)-7,8-dihydro-1,6-naphthyridin-6(5H)-yl)-4H-pyrimido[1,2-b]pyridazin-4-one], the Emax at 30 µM was determined as 79% and the concentration giving a half-maximal response (EC50) was 397 nM.

Turning to `Cc1c(N2CCc3ncc(-c4ccc(-n5ccnc5)nc4)cc3C2)nn2c(=O)ccnc2c1C` [Compound 1-98, 7-(3-(6-(1H-imidazol-1-yl)pyridin-3-yl)-7,8-dihydro-1,6-naphthyridin-6(5H)-yl)-8,9-dimethyl-4H-pyrimido[1,2-b]pyridazin-4-one], the maximal effect (Emax) at 30 µM worked out at 86% and the concentration for a half-maximal effect (EC50) turned out to be 534 nM.

`Cc1c(N2CCc3ncc(-c4ccc(N5CCOCC5)nc4)cc3C2)nn2c(=O)ccnc2c1C` [Compound 1-99, 8,9-dimethyl-7-(3-(6-morpholinopyridin-3-yl)-7,8-dihydro-1,6-naphthyridin-6(5H)-yl)-4H-pyrimido[1,2-b]pyridazin-4-one]: the Emax at 30 µM was determined as 88% and the EC50 is 190 nM.

Regarding `Cc1ccc(-c2cnc3c(c2)CN(c2nn4c(=O)c(C)cnc4c(C)c2C)CC3)cn1` [Compound 1-100, 3,8,9-trimethyl-7-(3-(6-methylpyridin-3-yl)-7,8-dihydro-1,6-naphthyridin-6(5H)-yl)-4H-pyrimido[1,2-b]pyridazin-4-one], the Emax at 30 µM turned out to be 92% and the EC50 is 134 nM.

As to `Cc1ncccc1-c1cnc2c(c1)CN(c1nn3c(=O)ccnc3c(C)c1C)CC2` [Compound 1-101, 8,9-dimethyl-7-(3-(2-methylpyridin-3-yl)-7,8-dihydro-1,6-naphthyridin-6(5H)-yl)-4H-pyrimido[1,2-b]pyridazin-4-one], the Emax at 30 µM was determined as 93% and the EC50 came out at 332 nM.

In the case of `Cc1c(N2CCc3ncc(-c4cncc(C(F)(F)F)c4)cc3C2)nn2c(=O)ccnc2c1C` [Compound 1-102, 8,9-dimethyl-7-(3-(5-(trifluoromethyl)pyridin-3-yl)-7,8-dihydro-1,6-naphthyridin-6(5H)-yl)-4H-pyrimido[1,2-b]pyridazin-4-one], the Emax at 30 µM came out at 83% and the EC50 is 733 nM.

Regarding `Cc1c(N2CCc3ncc(-c4cncc(F)c4)cc3C2)nn2c(=O)ccnc2c1C` [Compound 1-103, 7-(3-(5-fluoropyridin-3-yl)-7,8-dihydro-1,6-naphthyridin-6(5H)-yl)-8,9-dimethyl-4H-pyrimido[1,2-b]pyridazin-4-one], the Emax at 30 µM stood at 93% and the EC50 amounted to 449 nM.

Regarding `Cc1c(N2CCc3ncc(-c4cncnc4)cc3C2)nn2c(=O)ccnc2c1C` [Compound 1-104, 8,9-dimethyl-7-(3-(pyrimidin-5-yl)-7,8-dihydro-1,6-naphthyridin-6(5H)-yl)-4H-pyrimido[1,2-b]pyridazin-4-one], the Emax at 30 µM is 90% and the EC50 came to 696 nM.

For the molecule `CCc1cc(=O)n2nc(N3CCc4ncc(C(F)(F)F)cc4C3)c(C)c(C)c2n1` [Compound 1-105, 2-ethyl-8,9-dimethyl-7-(3-(trifluoromethyl)-7,8-dihydro-1,6-naphthyridin-6(5H)-yl)-4H-pyrimido[1,2-b]pyridazin-4-one], the Emax at 30 µM came out at 99% and the 50% effective concentration (EC50) came out at 162 nM.

Take `CCc1cc(=O)n2nc(N3CCc4ncc(-c5ccc(C)nc5)cc4C3)c(C)c(C)c2n1` [Compound 1-106, 2-ethyl-8,9-dimethyl-7-(3-(6-methylpyridin-3-yl)-7,8-dihydro-1,6-naphthyridin-6(5H)-yl)-4H-pyrimido[1,2-b]pyridazin-4-one]: the Emax at 30 µM is 104% and the 50% effective concentration (EC50) was determined as 108 nM.

Regarding `Cc1c(N2CCc3ncc(C(F)(F)F)cc3C2)nn2c(=O)cc(C(C)C)nc2c1C` [Compound 1-107, 2-isopropyl-8,9-dimethyl-7-(3-(trifluoromethyl)-7,8-dihydro-1,6-naphthyridin-6(5H)-yl)-4H-pyrimido[1,2-b]pyridazin-4-one], the Emax at 30 µM worked out at 102% and the EC50 is 178 nM.

With `Cc1ccc(-c2cnc3c(c2)CN(c2nn4c(=O)cc(C(C)C)nc4c(C)c2C)CC3)cn1` [Compound 1-108, 2-isopropyl-8,9-dimethyl-7-(3-(6-methylpyridin-3-yl)-7,8-dihydro-1,6-naphthyridin-6(5H)-yl)-4H-pyrimido[1,2-b]pyridazin-4-one], the Emax at 30 µM was 94% and the EC50 turned out to be 158 nM.

Turning to `COCc1cc(=O)n2nc(N3CCc4ncc(C(F)(F)F)cc4C3)c(C)c(C)c2n1` [Compound 1-109, 2-(Methoxymethyl)-8,9-dimethyl-7-(3-(trifluoromethyl)-7,8-dihydro-1,6-naphthyridin-6(5H)-yl)-4H-pyrimido[1,2-b]pyridazin-4-one], the Emax at 30 µM is 79% and the EC50 turned out to be 60 nM.

As for `COCc1cc(=O)n2nc(N3CCc4ncc(-c5ccc(C)nc5)cc4C3)c(C)c(C)c2n1` [Compound 1-110, 2-(methoxymethyl)-8,9-dimethyl-7-(3-(6-methylpyridin-3-yl)-7,8-dihydro-1,6-naphthyridin-6(5H)-yl)-4H-pyrimido[1,2-b]pyridazin-4-one], the Emax at 30 µM was 95% and the EC50 was 177 nM.

With `Cc1c(C2CC2)c(N2CCc3ncc(C(F)(F)F)cc3C2)nn2c(=O)ccnc12` [Compound 1-111, 8-cyclopropyl-9-methyl-7-(3-(trifluoromethyl)-7,8-dihydro-1,6-naphthyridin-6(5H)-yl)-4H-pyrimido[1,2-b]pyridazin-4-one], the Emax at 30 µM was determined as 61% and the EC50 was determined as 2450 nM.

As for `Cc1ccc(-c2cnc3c(c2)CN(c2nn4c(=O)ccnc4c(C)c2C2CC2)CC3)cn1` [Compound 1-112, 8-cyclopropyl-9-methyl-7-(3-(6-methylpyridin-3-yl)-7,8-dihydro-1,6-naphthyridin-6(5H)-yl)-4H-pyrimido[1,2-b]pyridazin-4-one], the Emax at 30 µM was found to be 67% and the EC50 came to 668 nM.

With `Cc1c(N2CCc3ncc(C(F)(F)F)cc3C2)nn2c(=O)ccnc2c1C1CC1` [Compound 1-113, 9-cyclopropyl-8-methyl-7-(3-(trifluoromethyl)-7,8-dihydro-1,6-naphthyridin-6(5H)-yl)-4H-pyrimido[1,2-b]pyridazin-4-one], the Emax at 30 µM is 73% and the half-maximal effective concentration (EC50) stood at 262 nM.

`Cc1ccc(-c2cnc3c(c2)CN(c2nn4c(=O)ccnc4c(C4CC4)c2C)CC3)cn1` [Compound 1-114, 9-cyclopropyl-8-methyl-7-(3-(6-methylpyridin-3-yl)-7,8-dihydro-1,6-naphthyridin-6(5H)-yl)-4H-pyrimido[1,2-b]pyridazin-4-one]: the Emax at 30 µM came out at 73% and the EC50 came out at 615 nM.

As to `Cc1ncccc1-c1cnc2c(c1)CN(c1nn3c(=O)cc(C(F)F)nc3c(C)c1C)CC2` [Compound 1-115, 2-(difluoromethyl)-8,9-dimethyl-7-(3-(2-methylpyridin-3-yl)-7,8-dihydro-1,6-naphthyridin-6(5H)-yl)-4H-pyrimido[1,2-b]pyridazin-4-one], the Emax at 30 µM is 91% and the EC50 was 313 nM.

As to `Cc1c(N2CCc3ncc(-c4cnccn4)cc3C2)nn2c(=O)cc(C(F)F)nc2c1C` [Compound 1-116, 2-(difluoromethyl)-8,9-dimethyl-7-(3-(pyrazin-2-yl)-7,8-dihydro-1,6-naphthyridin-6(5H)-yl)-4H-pyrimido[1,2-b]pyridazin-4-one], the maximal response (Emax) at 30 µM was 93% and the EC50 came out at 19 nM.

For `Cc1cc(=O)n2nc(N3CCc4ncc(-c5cnccc5C)cc4C3)c(C)c(C)c2n1` [Compound 1-117, 2,8,9-trimethyl-7-(3-(4-methylpyridin-3-yl)-7,8-dihydro-1,6-naphthyridin-6(5H)-yl)-4H-pyrimido[1,2-b]pyridazin-4-one], the Emax at 30 µM turned out to be 90% and the EC50 amounted to 198 nM.

Regarding `Cc1cc(=O)n2nc(N3CCc4ncc(-c5cncnc5)cc4C3)c(C)c(C)c2n1` [Compound 1-118, 2,8,9-trimethyl-7-(3-(pyrimidin-5-yl)-7,8-dihydro-1,6-naphthyridin-6(5H)-yl)-4H-pyrimido[1,2-b]pyridazin-4-one], the Emax at 30 µM turned out to be 83% and the half-maximal effective concentration (EC50) came out at 6070 nM.

As to `Cc1cncc(-c2cnc3c(c2)CN(c2nn4c(=O)cc(C(F)F)nc4c(C)c2C)CC3)c1` [Compound 1-119, 2-(difluoromethyl)-8,9-dimethyl-7-(3-(5-methylpyridin-3-yl)-7,8-dihydro-1,6-naphthyridin-6(5H)-yl)-4H-pyrimido[1,2-b]pyridazin-4-one], the Emax at 30 µM turned out to be 85%.
